According to patent publication US20120184613A1, “SULFUR-CONTAINING COMPOUND AND USE THEREOF” (SUMITOMO CHEMICAL COMPANY, LIMITED, priority 2008, published 2012):

System: Blattalla germanica
Assay: Test Example 3: filter paper with sucrose bait, death rate of Blattalla germanica
Assay type: in vivo
Settings: 500 ppm test solution, 0.7 ml on filter paper; 2 male imagoes; after 6 days
Method: A formulation of any one of the present compounds (3) and (4) obtained according to Formulation Example 5 was diluted with water to prepare a test solution having 500 ppm of the active ingredient.
A filter paper having a diameter of 5.5 cm was spread on the bottom of a polyethylene cup having a diameter of 5.5 cm and 0.7 ml of the test solution was added dropwise onto the filter paper. As a bait, 30 mg of sucrose was uniformly placed on the filter paper. Into the polyethylene cup, 2 male imagoes of Blattalla germanica were released and the cup was sealed with a lid. After 6 days, the number of surviving or dead Blattalla germanica was counted and the death rate of the pest was calculated.

| Structure (SMILES) | pest death rate |
| --- | --- |
| CC(C)OCCS(=O)(=O)C(C#N)CCC(F)(F)C(F)(F)F (centres unmarked) [(3)] | 100% |
| COC(C)(C)CS(=O)(=O)C(C#N)CCC(F)(F)C(F)(F)F (centres unmarked) [(4)] | 100% |
